Laboratory results from patent US9926302B2, “Heteroaryl substituted heterocyclyl sulfones” (priority 2014, dated 2018).

Target: T1, Human CaV2.2 channels (Homo sapiens, UniProt Q00975)
T1 construct: expressed in transfected cells
Test: Fluorescence assay for CaV2.2 channels using potassium depolarization to induce channel opening (FLIPR, Fluo 4)
Format: cell-based
Conditions: alternative assay buffer 30 mM KCl (inactivated channel state), HEK293 cells stably expressing human CaV2.2; for inhibition at 3 µM: HEK293, 3 μM test compound, read-out: Activity Category: %-Inhib (CaV2.2) @3 μM @30 mM KCl; for Activity Category: %-Inhib (CaV2.2) @3 μM @30 mM KCl: 3 μM test compound
Text: In the process, the Ca^2+ influx is quantified in the FLIPR assay with the aid of a Ca^2+-sensitive dye (type Fluo-4, Molecular Probes Europe BV, Leiden, the Netherlands) in a fluorescent imaging plate reader (FLIPR 3, Molecular Devices, Sunnyvale, USA), as described hereinafter.
2.1 Fluorescence Assay for CaV2.2 Channels Using Potassium Depolarization to Induce Channel Opening
Human CaV2.2 channels were stably expressed in HEK293 cells together with alpha2-delta and beta subunits of voltage gated calcium channels. In addition, an inwardly rectifying potassium channel (Kir2.3) was stably expressed in these cells to augment control of the cell membrane potential by the concentration of extracellular potassium ions. Raise of the extracellular potassium concentration leads to depolarization of the membrane potential and thus regulates the voltage dependent state of CaV2.2 channels. For preparation, cells were seeded in black poly-D-lysine coated 96-well plates (Becton Dickinson, Biocoat 4640) in 100 μL medium [500 mL DMEM/F-12 plus Glutamax (Invitrogen 31331-093) plus 5.5 mL MEM NEAA 100× (Invitrogen 11140-035) plus 50 mL FBS decomplemented (Invitrogen 10270-106) plus 200 μg/mL Geneticin (Invitrogen 10131-027) plus 50 μg/mL Hygromycin B (Invitrogen 10687-010) plus 2 μg/mL Blasticidin (anti-bl5b Invivo-Gen) plus 0.2 μg/mL Puromycin (A 11138-03)] at a cell density of 30.000 cells per well. Plates were incubated at 37° C. (5% CO2) for 20 to 23 h. On the day of experiment medium was discarded and cells were loaded with Fluo 4 by addition of 100 μL of basic assay buffer (10 mM HEPES, 1 mM KCl, 149 mM NaCl, 0.8 mM CaCl2, 1.7 mM MgCl2, 10 mM Glucose, 0.1% BSA. pH 7.4) containing 2 μM Fluo 4 (Molecular Probes; F-14201), 0.01% pluronic acid (Molecular Probes; P-6866) and 2.5 mM probenecid (Molecular Probes; P36400). Cells were incubated in the dark at 25° C. for 60 min. Then dye containing buffer was discarded and 100 μL basic (1 mM KCl) or alternative (30 mM KCl) assay buffer was added. The alternative assay buffer contained altered concentrations of KCl (30 mM) and NaCl (120 mM) and was used in order to promote the inactivated channel state. After that 25 μL of basic or alternative assay buffer with or without test compound were added and cells were incubated again in the dark at 25° C. for 15 min. Fluorescence intensity was measured on a FLIPR 3 instrument (Molecular Devices Corp., Sunnyvale, Calif.) with excitation at 480 nm and emission at 535 nm. After continuously reading fluorescence for 30 sec, 50 μL of basic assay buffer containing 210 mM KCl (NaCl omitted) were added for depolarization. Peak fluorescent signal intensity was determined and the amplitude of the peak signal, normalized to base line, was used to measure channel inhibition by test compounds.

T1 sequence (P54289 947-1103): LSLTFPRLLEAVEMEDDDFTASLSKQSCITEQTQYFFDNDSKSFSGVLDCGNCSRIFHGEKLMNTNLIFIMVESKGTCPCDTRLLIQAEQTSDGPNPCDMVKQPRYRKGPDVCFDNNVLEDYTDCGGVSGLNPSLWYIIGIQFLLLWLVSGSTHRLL
T1 sequence (P54289 25-946): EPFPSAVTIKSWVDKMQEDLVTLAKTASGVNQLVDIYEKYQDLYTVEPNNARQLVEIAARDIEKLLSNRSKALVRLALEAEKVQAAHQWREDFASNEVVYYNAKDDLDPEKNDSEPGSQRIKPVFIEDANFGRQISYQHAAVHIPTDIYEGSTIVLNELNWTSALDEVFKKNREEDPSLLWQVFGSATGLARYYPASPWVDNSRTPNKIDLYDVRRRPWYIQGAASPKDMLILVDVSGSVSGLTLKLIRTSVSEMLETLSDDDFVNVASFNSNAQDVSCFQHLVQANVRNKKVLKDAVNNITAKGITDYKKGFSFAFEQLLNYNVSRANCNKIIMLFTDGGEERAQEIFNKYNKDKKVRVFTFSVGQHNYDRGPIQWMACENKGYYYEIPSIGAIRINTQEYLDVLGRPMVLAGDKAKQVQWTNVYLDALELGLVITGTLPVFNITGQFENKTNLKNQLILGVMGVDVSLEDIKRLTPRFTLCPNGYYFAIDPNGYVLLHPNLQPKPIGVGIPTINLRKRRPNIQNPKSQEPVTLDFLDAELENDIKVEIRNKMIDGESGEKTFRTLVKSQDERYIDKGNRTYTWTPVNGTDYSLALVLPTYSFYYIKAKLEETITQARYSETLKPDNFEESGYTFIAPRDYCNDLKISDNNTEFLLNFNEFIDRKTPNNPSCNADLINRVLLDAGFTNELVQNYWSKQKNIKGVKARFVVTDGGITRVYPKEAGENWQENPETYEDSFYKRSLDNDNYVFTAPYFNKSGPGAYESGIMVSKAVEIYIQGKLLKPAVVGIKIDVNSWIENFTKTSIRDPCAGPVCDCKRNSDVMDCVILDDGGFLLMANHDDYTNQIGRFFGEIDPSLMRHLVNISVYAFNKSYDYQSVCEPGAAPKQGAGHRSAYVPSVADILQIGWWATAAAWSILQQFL
T1 sequence (P54284 whole entry, further chain): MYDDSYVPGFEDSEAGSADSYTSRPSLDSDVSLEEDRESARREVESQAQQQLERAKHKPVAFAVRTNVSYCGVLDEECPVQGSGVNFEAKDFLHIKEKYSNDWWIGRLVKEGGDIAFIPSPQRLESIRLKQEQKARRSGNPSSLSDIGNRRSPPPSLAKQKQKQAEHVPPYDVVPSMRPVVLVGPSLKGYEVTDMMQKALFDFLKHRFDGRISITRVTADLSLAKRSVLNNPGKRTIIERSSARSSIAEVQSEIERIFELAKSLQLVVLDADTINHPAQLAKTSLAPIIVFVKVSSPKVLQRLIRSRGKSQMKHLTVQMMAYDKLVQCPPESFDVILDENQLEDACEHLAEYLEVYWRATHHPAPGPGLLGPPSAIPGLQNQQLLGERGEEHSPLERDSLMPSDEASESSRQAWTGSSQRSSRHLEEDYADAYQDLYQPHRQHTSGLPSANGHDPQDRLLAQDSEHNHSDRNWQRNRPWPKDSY
T1 sequence (Q00975 whole entry): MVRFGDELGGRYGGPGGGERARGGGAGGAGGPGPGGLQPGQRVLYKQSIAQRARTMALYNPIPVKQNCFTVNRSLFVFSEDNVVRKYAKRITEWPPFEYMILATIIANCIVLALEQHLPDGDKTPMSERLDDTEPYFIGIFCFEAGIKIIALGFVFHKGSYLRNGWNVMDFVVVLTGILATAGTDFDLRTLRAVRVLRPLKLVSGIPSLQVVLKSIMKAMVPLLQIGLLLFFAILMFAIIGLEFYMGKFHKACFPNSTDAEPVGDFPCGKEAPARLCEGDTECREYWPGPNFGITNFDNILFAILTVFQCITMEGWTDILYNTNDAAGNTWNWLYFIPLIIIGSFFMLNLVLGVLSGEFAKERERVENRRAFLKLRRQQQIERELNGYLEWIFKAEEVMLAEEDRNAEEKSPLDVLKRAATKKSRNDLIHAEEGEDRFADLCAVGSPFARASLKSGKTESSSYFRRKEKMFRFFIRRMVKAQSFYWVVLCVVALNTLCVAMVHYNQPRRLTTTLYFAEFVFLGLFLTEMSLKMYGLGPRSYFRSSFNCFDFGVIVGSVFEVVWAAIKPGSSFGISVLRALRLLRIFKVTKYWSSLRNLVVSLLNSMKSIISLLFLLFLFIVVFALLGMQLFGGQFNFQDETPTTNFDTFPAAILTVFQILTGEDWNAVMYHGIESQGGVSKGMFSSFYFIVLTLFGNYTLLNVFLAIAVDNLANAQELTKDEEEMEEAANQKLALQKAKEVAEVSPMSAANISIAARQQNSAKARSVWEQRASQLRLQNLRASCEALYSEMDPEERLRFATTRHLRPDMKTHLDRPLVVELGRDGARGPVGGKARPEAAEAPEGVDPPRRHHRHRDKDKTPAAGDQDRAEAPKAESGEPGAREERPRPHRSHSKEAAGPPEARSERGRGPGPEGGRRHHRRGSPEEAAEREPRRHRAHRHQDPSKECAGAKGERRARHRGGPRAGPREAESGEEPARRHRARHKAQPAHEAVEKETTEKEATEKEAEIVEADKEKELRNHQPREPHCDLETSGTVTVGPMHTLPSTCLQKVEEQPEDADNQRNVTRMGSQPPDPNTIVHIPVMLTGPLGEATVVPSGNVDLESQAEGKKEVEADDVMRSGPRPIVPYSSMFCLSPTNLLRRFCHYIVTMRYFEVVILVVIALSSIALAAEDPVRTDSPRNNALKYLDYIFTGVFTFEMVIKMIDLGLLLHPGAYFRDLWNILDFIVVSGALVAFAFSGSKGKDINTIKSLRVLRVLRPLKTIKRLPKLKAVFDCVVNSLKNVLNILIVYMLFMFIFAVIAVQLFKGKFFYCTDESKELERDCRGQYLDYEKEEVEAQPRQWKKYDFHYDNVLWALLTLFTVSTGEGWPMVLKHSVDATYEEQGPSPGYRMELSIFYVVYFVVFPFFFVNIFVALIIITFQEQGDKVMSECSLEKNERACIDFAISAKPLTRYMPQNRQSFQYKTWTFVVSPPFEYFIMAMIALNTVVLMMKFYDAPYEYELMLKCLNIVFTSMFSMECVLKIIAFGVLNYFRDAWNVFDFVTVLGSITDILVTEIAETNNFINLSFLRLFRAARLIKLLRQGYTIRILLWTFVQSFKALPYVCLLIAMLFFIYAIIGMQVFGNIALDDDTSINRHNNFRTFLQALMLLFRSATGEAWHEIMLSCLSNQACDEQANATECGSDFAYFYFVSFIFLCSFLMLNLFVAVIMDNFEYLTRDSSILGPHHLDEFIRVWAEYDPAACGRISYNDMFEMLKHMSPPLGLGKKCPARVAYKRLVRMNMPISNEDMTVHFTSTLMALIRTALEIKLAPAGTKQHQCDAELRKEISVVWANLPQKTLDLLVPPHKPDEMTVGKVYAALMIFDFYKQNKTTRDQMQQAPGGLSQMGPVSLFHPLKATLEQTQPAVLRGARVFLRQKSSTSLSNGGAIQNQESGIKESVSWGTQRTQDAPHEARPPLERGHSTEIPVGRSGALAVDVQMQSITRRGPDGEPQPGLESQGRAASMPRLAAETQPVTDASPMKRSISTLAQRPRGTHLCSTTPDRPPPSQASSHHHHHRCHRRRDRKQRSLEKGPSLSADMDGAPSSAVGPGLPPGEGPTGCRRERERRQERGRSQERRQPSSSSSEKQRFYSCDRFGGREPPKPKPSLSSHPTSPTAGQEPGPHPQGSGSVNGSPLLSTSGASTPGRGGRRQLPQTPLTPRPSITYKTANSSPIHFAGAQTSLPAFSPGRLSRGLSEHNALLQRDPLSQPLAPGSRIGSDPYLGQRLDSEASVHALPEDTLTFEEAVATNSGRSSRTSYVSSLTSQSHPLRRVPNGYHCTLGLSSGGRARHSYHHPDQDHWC

Question: CC1(S(=O)(=O)c2cccc(C(F)(F)F)c2)CCOC(c2ccc(C3CC3)cn2)C1 (stereo not shown) [SC-103, 5-Cyclopropyl-2-[4-methyl-4-[[3-(trifluoromethyl)phenyl]sulfonyl]-tetrahydro-pyran-2-yl]-pyridine] was tested. Which inhibition at 3 µM did it give?
Answer: > 95%

Question: Which inhibition at 3 µM does the source give for CC1(S(=O)(=O)c2cccc(C(F)(F)F)c2)CCOC(c2ccc(S(C)(=O)=O)cn2)C1 (stereo not shown) [SC-104, 5-Methylsulfonyl-2-[4-methyl-4-[[3-(trifluoromethyl)phenyl]sulfonyl]-tetrahydro-pyran-2-yl]-pyridine] here?
Answer: 75 to 95%

Question: How did the inhibition at 3 µM turn out when CCC1(S(=O)(=O)c2cccc(C(F)(F)F)c2)CCOC(c2ccc(C(F)(F)F)cn2)C1 (stereo not shown) [SC-106, 2-[4-Ethyl-4-[[3-(trifluoromethyl)phenyl]sulfonyl]-tetrahydro-pyran-2-yl]-5-(trifluoromethyl)-pyridine] was run?
Answer: > 95%

Question: For CCC1(S(=O)(=O)c2cccc(C(F)(F)F)c2)CCOC(c2ccc(C(F)(F)F)cn2)C1 (stereo not shown) [SC-107, 2-[4-Ethyl-4-[[3-(trifluoromethyl)phenyl]sulfonyl]-tetrahydro-pyran-2-yl]-5-(trifluoromethyl)-pyridine], which “Activity Category: %-Inhib (CaV2.2) @3 μM @30 mM KCl” value (“Activity Category: %-Inhib” for short) is on record?
Answer: A (%-Inhibition >95%)

Question: CCC1(S(=O)(=O)c2cccc(C(F)(F)F)c2)CCOC(c2ccc(C(F)(F)F)cn2)C1 (stereo not shown) [SC-108, 2-[4-Ethyl-4-[[3-(trifluoromethyl)phenyl]sulfonyl]-tetrahydro-pyran-2-yl]-5-(trifluoromethyl)-pyridine] was tested. Which “Activity Category: %-Inhib” value did it give?
Answer: A (%-Inhibition >95%)

Question: Which “Activity Category: %-Inhib” value does the source give for CCC1(S(=O)(=O)c2cccc(C(F)(F)F)c2)CCOC(c2ccc(C(F)(F)F)cn2)C1 (stereo not shown) [SC-109, 2-[4-Ethyl-4-[[3-(trifluoromethyl)phenyl]sulfonyl]-tetrahydro-pyran-2-yl]-5-(trifluoromethyl)-pyridine] here?
Answer: B (%-Inhibition >75% up to ≤95%)

Question: Which inhibition at 3 µM does the source give for Cc1ccc(OCC2CC(C)(S(=O)(=O)c3cccc(C(F)(F)F)c3)CCO2)cn1 (stereo not shown) [SC-114, 2-Methyl-5-[[4-methyl-4-[[3-(trifluoromethyl)phenyl]sulfonyl]-tetrahydro-pyran-2-yl]-methoxy]-pyridine] here?
Answer: 75 to 95%

Question: CC1(S(=O)(=O)c2cccc(C(F)(F)F)c2)CCOC(c2nnc(C3CC3)o2)C1 (stereo not shown) [SC-127, 2-Cyclopropyl-5-[4-methyl-4-[[3-(trifluoromethyl)phenyl]sulfonyl]-tetrahydro-pyran-2-yl]-[1,3,4]oxadiazole] was tested. Which inhibition at 3 µM did it give?
Answer: 40 to 75%

Question: How did the inhibition at 3 µM turn out when CC1(S(=O)(=O)c2cccc(C(F)(F)F)c2)CCOC(c2nc(C3CC3)co2)C1 (stereo not shown) [SC-158, 4-Cyclopropyl-2-[4-methyl-4-[[3-(trifluoromethyl)phenyl]sulfonyl]-tetrahydro-pyran-2-yl]-oxazole] was run?
Answer: > 95%

Question: For CCC1(S(=O)(=O)c2cccc(C(F)(F)F)c2)CCOC(c2nc(C(F)(F)F)no2)C1 (stereo not shown) [SC-200, 5-[4-Ethyl-4-[[3-(trifluoromethyl)phenyl]sulfonyl]-tetrahydro-pyran-2-yl]-3-(trifluoromethyl)-[1,2,4]oxadiazole], which inhibition at 3 µM is on record?
Answer: 75 to 95%

Question: Which inhibition at 3 µM does the source give for CCC1(S(=O)(=O)c2cccc(C(F)(F)F)c2)CCOC(c2nc(C3CC3)no2)C1 (stereo not shown) [SC-202, 3-Cyclopropyl-5-[4-ethyl-4-[[3-(trifluoromethyl)phenyl]sulfonyl]-tetrahydro-pyran-2-yl]-[1,2,4]oxadiazole] here?
Answer: 75 to 95%

Question: CC1(S(=O)(=O)c2cccc(C(F)(F)F)c2)CCOC(c2cnc(C3CC3)nc2)C1 (stereo not shown) [SC-204, 2-Cyclopropyl-5-[4-methyl-4-[[3-(trifluoromethyl)phenyl]sulfonyl]-tetrahydro-pyran-2-yl]-pyrimidine] was tested. Which “Activity Category: %-Inhib” value did it give?
Answer: B (%-Inhibition >75% up to ≤95%)

Question: For CC1(S(=O)(=O)c2cccc(C(F)(F)F)c2)CCOC(c2cnc(C3CC3)nc2)C1 (stereo not shown) [SC-205, 2-Cyclopropyl-5-[4-methyl-4-[[3-(trifluoromethyl)phenyl]sulfonyl]-tetrahydro-pyran-2-yl]-pyrimidine], which inhibition at 3 µM is on record?
Answer: > 95%

Question: CCC1(S(=O)(=O)c2cccc(C(F)(F)F)c2)CCOC(c2nnc(C3CC3)o2)C1 (stereo not shown) [SC-206, 2-Cyclopropyl-5-[4-ethyl-4-[[3-(trifluoromethyl)phenyl]sulfonyl]-tetrahydro-pyran-2-yl]-[1,3,4]oxadiazole] was tested. Which inhibition at 3 µM did it give?
Answer: 40 to 75%

Question: Which inhibition at 3 µM does the source give for CC1(S(=O)(=O)c2cccc(C(F)(F)F)c2)CCOC(COc2ccc(C(F)(F)F)nc2)C1 (stereo not shown) [SC-208, 5-[[4-Methyl-4-[[3-(trifluoromethyl)phenyl]sulfonyl]-tetrahydro-pyran-2-yl]-methoxy]-2-(trifluoromethyl)-pyridine] here?
Answer: 75 to 95%

Question: CC1(S(=O)(=O)c2cccc(C(F)(F)F)c2)CCOC(COc2ccc(C(F)(F)F)nc2)C1 (stereo not shown) [SC-209, 5-[[4-Methyl-4-[[3-(trifluoromethyl)phenyl]sulfonyl]-tetrahydro-pyran-2-yl]-methoxy]-2-(trifluoromethyl)-pyridine] was tested. Which “Activity Category: %-Inhib” value did it give?
Answer: A (%-Inhibition >95%)

Question: With CC1(S(=O)(=O)c2cccc(S(C)(=O)=O)c2)CCOC(c2ncc(C(F)(F)F)cc2S(C)(=O)=O)C1 (stereo not shown) [SC-210, 2-[4-Methyl-4-[(3-methylsulfonyl-phenyl)sulfonyl]-tetrahydro-pyran-2-yl]-3-methylsulfonyl-5-(trifluoromethyl)-pyridine] as the compound, how does the inhibition at 3 µM read?
Answer: > 95%

Question: How did the inhibition at 3 µM turn out when CC1(S(=O)(=O)c2cccc(C(F)F)c2)CCOC(c2ncc(C(F)(F)F)cc2S(C)(=O)=O)C1 (stereo not shown) [SC-212, 2-[4-[[3-(Difluoro-methyl)-phenyl]sulfonyl]-4-methyl-tetrahydro-pyran-2-yl]-3-methylsulfonyl-5-(trifluoromethyl)-pyridine] was run?
Answer: 75 to 95%

Question: CC1(S(=O)(=O)c2cc(F)cc(C(F)(F)F)c2)CCOC(c2ncc(S(C)(=O)=O)cc2Cl)C1 (stereo not shown) [SC-214, 3-Chloro-2-[4-[[3-fluoro-5-(trifluoromethyl)-phenyl]sulfonyl]-4-methyl-tetrahydro-pyran-2-yl]-5-methylsulfonyl-pyridine] was tested. Which “Activity Category: %-Inhib” value did it give?
Answer: C (%-Inhibition >40% up to ≤75%)

Question: CC1(S(=O)(=O)c2cc(F)cc(C(F)(F)F)c2)CCOC(c2ncc(S(C)(=O)=O)cc2Cl)C1 (stereo not shown) [SC-215, 3-Chloro-2-[4-[[3-fluoro-5-(trifluoromethyl)-phenyl]sulfonyl]-4-methyl-tetrahydro-pyran-2-yl]-5-methylsulfonyl-pyridine] was tested. Which “Activity Category: %-Inhib” value did it give?
Answer: B (%-Inhibition >75% up to ≤95%)

Question: For CC1(S(=O)(=O)c2cc(F)cc(C(F)F)c2)CCOC(c2ncc(S(C)(=O)=O)cc2Cl)C1 (stereo not shown) [SC-216, 3-Chloro-2-[4-[[3-(difluoro-methyl)-5-fluoro-phenyl]sulfonyl]-4-methyl-tetrahydro-pyran-2-yl]-5-methylsulfonyl-pyridine], which inhibition at 3 µM is on record?
Answer: 40 to 75%

Question: CC1(S(=O)(=O)c2cccc(OC(F)(F)F)c2)CCOC(c2ncc(S(C)(=O)=O)cc2Cl)C1 (stereo not shown) [SC-218, 3-Chloro-5-methylsulfonyl-2-[4-methyl-4-[[3-(trifluoromethyloxy)-phenyl]sulfonyl]-tetrahydro-pyran-2-yl]-pyridine] was tested. Which inhibition at 3 µM did it give?
Answer: 75 to 95%

Question: For CC1(S(=O)(=O)c2cccc(OC(F)(F)F)c2)CCOC(c2ncc(S(C)(=O)=O)cc2Cl)C1 (stereo not shown) [SC-219, 3-Chloro-5-methylsulfonyl-2-[4-methyl-4-[[3-(trifluoromethyloxy)-phenyl]sulfonyl]-tetrahydro-pyran-2-yl]-pyridine], which “Activity Category: %-Inhib” value is on record?
Answer: A (%-Inhibition >95%)

Question: With CC1(S(=O)(=O)c2cccc(OC(F)(F)F)c2)CCOC(c2ncc(C(F)(F)F)cc2S(C)(=O)=O)C1 (stereo not shown) [SC-220, 3-Methylsulfonyl-2-[4-methyl-4-[[3-(trifluoromethyloxy)-phenyl]sulfonyl]-tetrahydro-pyran-2-yl]-5-(trifluoromethyl)-pyridine] as the compound, how does the inhibition at 3 µM read?
Answer: > 95%

Question: How did the “Activity Category: %-Inhib” value turn out when CC1(S(=O)(=O)c2cccc(OC(F)(F)F)c2)CCOC(c2ncc(C(F)(F)F)cc2S(C)(=O)=O)C1 (stereo not shown) [SC-221, 3-Methylsulfonyl-2-[4-methyl-4-[[3-(trifluoromethyloxy)-phenyl]sulfonyl]-tetrahydro-pyran-2-yl]-5-(trifluoromethyl)-pyridine] was run?
Answer: B (%-Inhibition >75% up to ≤95%)
